Laboratory results taken from ChEMBL document CHEMBL2176899, “Structure-activity relationships and blood distribution of antiplasmodial aminopeptidase-1 inhibitors” (J Med Chem, 2012).
≈ marks a conversion by molar mass, not a printed value. Calls of active or inactive are those of the source. No cut-off for these calls is given here.

Assays:
Aminopeptidase N = biological target: T1, Aminopeptidase N (Sus scrofa, UniProt P15145); assay: Inhibition of porcine kidney microsomal neutral aminopeptidase using Leu-pNA as substrate preincubated for 10 mins
T1 sequence (P15145 whole entry): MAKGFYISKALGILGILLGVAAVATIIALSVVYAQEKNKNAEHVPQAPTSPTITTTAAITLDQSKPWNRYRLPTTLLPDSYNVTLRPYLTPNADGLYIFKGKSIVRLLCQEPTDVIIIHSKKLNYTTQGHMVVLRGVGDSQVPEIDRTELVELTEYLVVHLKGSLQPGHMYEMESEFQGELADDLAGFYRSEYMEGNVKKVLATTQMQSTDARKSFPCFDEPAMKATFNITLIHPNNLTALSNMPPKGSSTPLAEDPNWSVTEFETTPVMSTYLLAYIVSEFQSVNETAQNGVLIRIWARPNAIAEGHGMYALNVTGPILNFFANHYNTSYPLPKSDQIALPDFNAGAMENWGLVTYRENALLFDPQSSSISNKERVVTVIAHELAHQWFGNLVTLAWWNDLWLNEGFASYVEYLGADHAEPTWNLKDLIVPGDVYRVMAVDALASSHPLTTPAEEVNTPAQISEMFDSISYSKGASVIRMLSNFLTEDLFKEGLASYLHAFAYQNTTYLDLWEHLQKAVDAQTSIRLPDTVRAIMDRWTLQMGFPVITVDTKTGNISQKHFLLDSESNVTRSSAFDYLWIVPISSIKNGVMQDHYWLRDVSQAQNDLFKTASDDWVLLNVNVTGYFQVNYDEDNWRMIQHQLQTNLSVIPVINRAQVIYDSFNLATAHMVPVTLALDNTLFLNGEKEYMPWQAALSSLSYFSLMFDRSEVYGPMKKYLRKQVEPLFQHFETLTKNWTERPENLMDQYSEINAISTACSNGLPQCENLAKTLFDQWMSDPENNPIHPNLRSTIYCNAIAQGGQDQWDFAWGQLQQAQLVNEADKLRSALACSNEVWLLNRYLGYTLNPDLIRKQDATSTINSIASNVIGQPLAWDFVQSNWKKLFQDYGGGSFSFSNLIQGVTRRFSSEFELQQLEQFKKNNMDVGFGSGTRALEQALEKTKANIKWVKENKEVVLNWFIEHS

MRC5 = assay: Cytotoxicity against human MRC5 SV2 cells after 72 hrs by resazurin fluorimetric analysis; type: cell-based; conditions: MRC5, 72 h
[1] = Inhibition of Plasmodium falciparum AM1 using Leu-pNA as substrate preincubated for 10 mins
Plasmodium falciparum [2] = assay: microbe, parasite or virus in culture; conditions: K1, 72 h
Description: Antimalarial activity against Plasmodium falciparum K1 infected in human O positive erythrocytes under low oxygen atmosphere after 72 hrs by spectrophotometric analysis

[3] = Elimination half life in CD1 mouse RBC at 50 mg/kg, ip; type: ADME, organism-based, Erythrocyte; design: dose 50 mg/kg, route intraperitoneal; conditions: red blood cells, read-out: beta t1/2 (converted)
[4] = AUC (0 to last) in CD1 mouse plasma at 50 mg/kg, ip; type: ADME, organism-based; design: time 0 - last, dose 50 mg/kg, route intraperitoneal
Liver = assay: Metabolic stability in mouse liver microsomes at 1 uM after 30 mins; type: ADME, Microsome; conditions: 0.5 h
[5] = AUC (0 to infinity) in CD1 mouse plasma at 50 mg/kg, ip; type: ADME, organism-based; design: time infinity, dose 50 mg/kg, route intraperitoneal
[6] = biological target: Carbonic anhydrase 2 (Homo sapiens) (UniProt P00918); assay: Inhibition of human erythrocyte carbonic anhydrase-2 assessed as hydrolysis of 4-nitrophenylacetate at 1 to 50 uM
[7] = Metabolic stability in CD1 mouse RBC assessed as N-(4-Fluorobenzyl)-N'-hydroxy-2-[1-phenylmeth-(E)-ylidene]malonamide fromation through GSH-adduct at 50 mg/kg, ip; type: ADME, organism-based, Erythrocyte; design: dose 50 mg/kg, route intraperitoneal; conditions: in vivo
[8] = AUC (0 to last) in CD1 mouse RBC at 50 mg/kg, ip; type: ADME, organism-based, Erythrocyte; design: dose 50 mg/kg, route intraperitoneal, time 0 - last; conditions: red blood cells
Plasma [9] = assay: Metabolic stability in CD1 mouse plasma assessed as N-(4-Fluorobenzyl)-N'-hydroxy-2-[1-phenylmeth-(E)-ylidene]malonamide fromation through GSH-adduct at 50 mg/kg, ip; type: ADME, organism-based; design: dose 50 mg/kg, route intraperitoneal; conditions: in vivo
[10] = AUC (0 to infinity) in CD1 mouse RBC at 50 mg/kg, ip; type: ADME, organism-based, Erythrocyte; design: time infinity, dose 50 mg/kg, route intraperitoneal; conditions: in vivo
[11] = Drug metabolism assessed as N-(4-Fluorobenzyl)-N'-hydroxy-2-[1-phenylmeth-(E)-ylidene]malonamide fromation through GSH-adduct at 1 uM up to 60 mins; conditions: 1 h
[12] = Half life in human plasma; type: ADME, cell-free
Plasma [13] = assay: Tlast in CD1 mouse plasma at 50 mg/kg, ip; type: ADME, organism-based; design: dose 50 mg/kg, route intraperitoneal; conditions: in vivo
[14] = Elimination half life in CD1 mouse plasma at 50 mg/kg, ip; type: ADME, organism-based; design: dose 50 mg/kg, route intraperitoneal; conditions: read-out: beta t1/2 (converted)
[15] = Partition coefficient, log D of the compound in octanol-phosphate buffer at pH 7.4; type: physicochemical
[16] = Solubility of the compound in PBS at pH 7.4 after 24 hrs; type: physicochemical
[17] = Half life in rat plasma; type: ADME, cell-free
Plasmodium falciparum [18] = assay: microbe, parasite or virus in culture; conditions: 3D7, 72 h
Description: Antimalarial activity against Plasmodium falciparum 3D7 infected in human O positive erythrocytes under low oxygen atmosphere after 72 hrs by spectrophotometric analysis

For O=C(NO)C(Cc1ccc(F)cc1)C(=O)NCc1ccccc1 (centres undefined), the IC50 (Aminopeptidase N) was 1.32 µM, the IC50 (MRC5) was > 64 µM and the IC50 [1] was 0.31 µM. The IC50 (Plasmodium falciparum [2]) was 36.5 µM.

In the case of O=C(NO)/C(=C\c1ccccc1)C(=O)NCc1ccncc1, the IC50 (Aminopeptidase N) is reported as 2 µM and the IC50 [1] is reported as 0.44 µM.

With O=C(NO)C(Cc1ccccc1)C(=O)NCc1ccccc1 (centres undefined) the IC50 (Aminopeptidase N) was > 10 µM and the IC50 [1] was 0.125 µM.

Molecule O=C(NO)/C(=C\c1ccc(F)cc1)C(=O)NCc1ccccc1 has an IC50 (Aminopeptidase N) of 2.4 µM and an IC50 [1] of 0.069 µM.

In the case of O=C(NO)/C(=C/c1ccccc1)C(=O)NCc1ccc(F)cc1, the IC50 (Aminopeptidase N) is reported as > 10 µM and the IC50 [1] is reported as 0.33 µM.

In the case of CC(Cc1ccccc1)(C(=O)NO)C(=O)NCc1ccc(F)cc1 (centres undefined), the IC50 (Aminopeptidase N) is reported as > 10 µM, the IC50 (MRC5) is reported as > 64 µM and the IC50 [1] is reported as 0.056 µM. The IC50 (Plasmodium falciparum [2]) was 50.1 µM.

For O=C(NO)/C(=C\c1ccccc1)C(=O)NCc1ccc(F)cc1, the half-life [3] was 1.5 h, the AUC(0-t) [4] was 66 µM·h and the Stability (Liver) was “Stable”. The IC50 (MRC5) was 32 µM, the AUC(0-inf) [5] was 68 µM·h and the inhibition [6] was “inactive”. For the same molecule, the IC50 [1] was 0.006 µM, the Stability [7] was “Stable” and the AUC(0-t) [8] was 90 µM·h. The Stability (Plasma [9]) was “Stable”, the AUC [10] was 98 µM·h and the Drug metabolism [11] was “Active”. The half-life [12] was > 24 h, the Tlast (Plasma [13]) was 6 h and the IC50 (Plasmodium falciparum [2]) was 11 µM. It also gave a half-life [14] of 1 h.

In the case of O=C(NO)/C(=C\c1ccc(F)cc1)C(=O)NCc1ccc(F)cc1, the logD [15] is reported as 1.7, the solubility at 24 h [16] is reported as 190 µM (≈ 63.1 µg/mL) and the half-life [17] is reported as 3 h. It also gave an IC50 (Aminopeptidase N) of 4.2 µM, an IC50 (MRC5) of 32.2 µM and an IC50 [1] of 0.043 µM. The half-life [12] was > 24 h and the IC50 (Plasmodium falciparum [2]) was 30.4 µM.

For O=C(NO)C(Cc1ccccc1)C(=O)NCc1ccccc1F (centres undefined), the IC50 (Aminopeptidase N) was 2.22 µM, the IC50 (MRC5) was > 64 µM and the IC50 [1] was 0.256 µM. The IC50 (Plasmodium falciparum [2]) was 37.9 µM.

In the case of O=C(NO)C(Cc1ccccc1)C(=O)NCc1ccc(F)cc1 (centres undefined), the solubility at 24 h [16] is reported as > 200 µM, the half-life [17] is reported as 0.8 h and the IC50 (MRC5) is reported as > 64 µM. The IC50 [1] was 0.027 µM, the half-life [12] was > 24 h and the IC50 (Plasmodium falciparum [2]) was 17.4 µM.

In the case of O=C(NO)C(Cc1ccccc1)C(=O)NCc1cccc(F)c1 (centres undefined), the IC50 (Aminopeptidase N) is reported as 2.33 µM, the IC50 (MRC5) is reported as > 64 µM and the IC50 [1] is reported as 0.21 µM. For the same molecule, the IC50 (Plasmodium falciparum [2]) was 24.7 µM.

Molecule NC(CCc1ccccc1)P(=O)(O)CC(Cc1ccccc1)C(=O)O (centres undefined) has an IC50 (Plasmodium falciparum [18]) of 24 µM.

With O=C(NO)C(Cc1ccc(F)cc1)C(=O)NCc1ccc(F)cc1 (centres undefined) the IC50 (Aminopeptidase N) was 3.96 µM, the IC50 (MRC5) was > 64 µM and the IC50 [1] was 0.258 µM. For the same molecule, the IC50 (Plasmodium falciparum [2]) was 41.6 µM.

With CC(C)C[C@H](NC(=O)[C@@H](O)[C@H](N)Cc1ccccc1)C(=O)O [UBENIMEX] the IC50 (Plasmodium falciparum [18]) was 8 µM.

For O=C(NO)C(Cc1ccccc1)C(=O)NCc1ccncc1 (centres undefined), the IC50 (Aminopeptidase N) was 4.55 µM, the IC50 (MRC5) was > 64 µM and the IC50 [1] was 1.05 µM. The IC50 (Plasmodium falciparum [2]) was > 64 µM.
